Reference: ChEMBL document CHEMBL4400519, “Indazolylketones as new multitarget cannabinoid drugs” (Eur J Med Chem, 2019)
Active and inactive are the calls of the source. The calls are words filed in the database; no cut-off is given here.

Legend:
[1] = biological target: T1, Cannabinoid receptor (Mus musculus) (UniProt P47746+P47936); experiment: Agonist activity at cannabinoid receptor in ICR mouse vas deferens assessed as inhibition of electrically induced contractions at 2.7 x 10^-6 M after 10 mins relative to control; assay type: protein assay
[2] = Antioxidant activity assessed as trolox equivalent of APPH-induced radical scavenging activity by ORAC-FL assay; assay type: functional
[3] = biological target: T1, Cannabinoid receptor (Mus musculus); experiment: Agonist activity at cannabinoid receptor in ICR mouse vas deferens assessed as inhibition of electrically induced contractions at 9 x 10^-7 M after 10 mins in presence of CB1 antagonist AM251 relative to control; assay type: protein assay
[4] = biological target: T1, Cannabinoid receptor (Mus musculus); experiment: Agonist activity at cannabinoid receptor in ICR mouse vas deferens assessed as inhibition of electrically induced contractions at 8.1 x 10^-6 M after 10 mins in presence of CB1 antagonist AM251 relative to control; assay type: protein assay
[5] = biological target: Beta-secretase 1 (Homo sapiens) (UniProt P56817); experiment: Inhibition of human BACE1 at 10 uM incubated for 60 mins using rhodamine-EVNLDAEFK-quencher substrate by FRET assay
[6] = tested on: SH-SY5Y; experiment: Neuroprotective activity against amyloid beta-induced neurodegeneration in human SH-SY5Y cells at 10 uM preincubated for 1 hr followed by amyloid beta addition and measured after 24 hrs CB2 antagonist AM630 by MTT assay; assay type: functional, cell-based
[7] = biological target: T2, Acetylcholinesterase (Homo sapiens, UniProt P22303); experiment: Inhibition of human erythrocyte AChE using acetylthiocholine as substrate by Ellman's assay
[8] = biological target: T1, Cannabinoid receptor (Mus musculus); experiment: Agonist activity at cannabinoid receptor in ICR mouse vas deferens assessed as inhibition of electrically induced contractions at 10^-7 M after 10 mins relative to control; assay type: protein assay
[9] = biological target: T1, Cannabinoid receptor (Mus musculus); experiment: Agonist activity at cannabinoid receptor in ICR mouse vas deferens assessed as inhibition of electrically induced contractions at 3 x 10^-7 M after 10 mins in presence of CB1 antagonist AM251 relative to control; assay type: protein assay
[10] = Antiproliferative activity against normal human derived lymphoblast cells at 5 uM after 72 hrs by MTT assay
[11] = biological target: T1, Cannabinoid receptor (Mus musculus); experiment: Agonist activity at cannabinoid receptor in ICR mouse vas deferens assessed as inhibition of electrically induced contractions at 1.82 x 10^-5 M after 10 mins in presence of CB2 antagonist AM630 relative to control; assay type: protein assay
[12] = tested on: SH-SY5Y; experiment: Neuroprotective activity against amyloid beta-induced neurodegeneration in human SH-SY5Y cells at 10 uM preincubated for 1 hr followed by amyloid beta addition and measured after 24 hrs by MTT assay; assay type: functional, cell-based
[13] = biological target: T1, Cannabinoid receptor (Mus musculus); experiment: Agonist activity at cannabinoid receptor in ICR mouse vas deferens assessed as inhibition of electrically induced contractions at 1.82 x 10^-5 M after 10 mins in presence of CB1 antagonist AM251 relative to control; assay type: protein assay
[14] = species on record: Homo sapiens; experiment: Antiproliferative activity against Alzheimer's patient derived lymphoblast cells at 5 uM after 72 hrs by MTT assay; assay type: functional
[15] = biological target: T1, Cannabinoid receptor (Mus musculus); experiment: Agonist activity at cannabinoid receptor in ICR mouse vas deferens assessed as inhibition of electrically induced contractions at 1.82 x 10^-5 M after 10 mins relative to control; assay type: protein assay
[16] = biological target: T1, Cannabinoid receptor (Mus musculus); experiment: Agonist activity at cannabinoid receptor in ICR mouse vas deferens assessed as inhibition of electrically induced contractions at 9 x 10^-7 M after 10 mins relative to control; assay type: protein assay
[17] = biological target: T3, Cholinesterase (Homo sapiens, UniProt P06276); experiment: Inhibition of human serum BChE using butyrylthiocholine as substrate by Ellman's assay
[18] = biological target: T1, Cannabinoid receptor (Mus musculus); experiment: Agonist activity at cannabinoid receptor in ICR mouse vas deferens assessed as inhibition of electrically induced contractions at 8.1 x 10^-6 M after 10 mins relative to control; assay type: protein assay
[19] = biological target: T1, Cannabinoid receptor (Mus musculus); experiment: Agonist activity at cannabinoid receptor in ICR mouse vas deferens assessed as inhibition of electrically induced contractions at 8.1 x 10^-6 M after 10 mins in presence of CB2 antagonist AM630 relative to control; assay type: protein assay
[20] = species on record: Homo sapiens; experiment: Antiproliferative activity against Alzheimer's patient derived lymphoblast cells at 5 uM in presence of CB2 antagonist AM630 after 72 hrs by MTT assay; assay type: functional
[21] = biological target: T1, Cannabinoid receptor (Mus musculus); experiment: Agonist activity at cannabinoid receptor in ICR mouse vas deferens assessed as inhibition of electrically induced contractions at 3 x 10^-7 M after 10 mins relative to control; assay type: protein assay
[22] = biological target: T1, Cannabinoid receptor (Mus musculus); experiment: Agonist activity at cannabinoid receptor in ICR mouse vas deferens assessed as inhibition of electrically induced contractions at 10^-7 M after 10 mins in presence of CB1 antagonist AM251 relative to control; assay type: protein assay
[23] = biological target: T1, Cannabinoid receptor (Mus musculus); experiment: Agonist activity at cannabinoid receptor in ICR mouse vas deferens assessed as inhibition of electrically induced contractions at 2.7 x 10^-6 M after 10 mins in presence of CB1 antagonist AM251 relative to control; assay type: protein assay
[24] = biological target: T1, Cannabinoid receptor (Mus musculus); experiment: Agonist activity at cannabinoid receptor in ICR mouse vas deferens assessed as inhibition of electrically induced contractions at 9 x 10^-7 M after 10 mins in presence of CB1 antagonist AM251 and CB2 antagonist AM630 relative to control; assay type: protein assay
[25] = biological target: T1, Cannabinoid receptor (Mus musculus); experiment: Agonist activity at cannabinoid receptor in ICR mouse vas deferens assessed as inhibition of electrically induced contractions at 3 x 10^-7 M after 10 mins in presence of CB1 antagonist AM251 and CB2 antagonist AM630 relative to control; assay type: protein assay
[26] = biological target: T1, Cannabinoid receptor (Mus musculus); experiment: Agonist activity at cannabinoid receptor in ICR mouse vas deferens assessed as inhibition of electrically induced contractions at 10^-7 M after 10 mins in presence of CB1 antagonist AM251 and CB2 antagonist AM630 relative to control; assay type: protein assay
[27] = biological target: T1, Cannabinoid receptor (Mus musculus); experiment: Agonist activity at cannabinoid receptor in ICR mouse vas deferens assessed as inhibition of electrically induced contractions at 2.7 x 10^-6 M after 10 mins in presence of CB1 antagonist AM251 and CB2 antagonist AM630 relative to control; assay type: protein assay
[28] = biological target: T2, Acetylcholinesterase; experiment: Inhibition of human erythrocyte AChE at 10 uM using acetylthiocholine as substrate by Ellman's assay
[29] = biological target: T1, Cannabinoid receptor (Mus musculus); experiment: Agonist activity at cannabinoid receptor in ICR mouse vas deferens assessed as inhibition of electrically induced contractions at 1.82 x 10^-5 M after 10 mins in presence of CB1 antagonist AM251 and CB2 antagonist AM630 relative to control; assay type: protein assay
[30] = tested on: SH-SY5Y; experiment: Neuroprotective activity against amyloid beta-induced neurodegeneration in human SH-SY5Y cells at 20 uM preincubated for 1 hr followed by amyloid beta addition and measured after 24 hrs by MTT assay; assay type: functional, cell-based
[31] = biological target: T3, Cholinesterase; experiment: Non-competitive inhibition of human serum BChE using butyrylthiocholine as substrate by Lineweaver-Burk plot analysis
[32] = biological target: T1, Cannabinoid receptor (Mus musculus); experiment: Agonist activity at cannabinoid receptor in ICR mouse vas deferens assessed as inhibition of electrically induced contractions at 8.1 x 10^-6 M after 10 mins in presence of CB1 antagonist AM251 and CB2 antagonist AM630 relative to control; assay type: protein assay

T1 sequence (P47746 whole entry, looked up): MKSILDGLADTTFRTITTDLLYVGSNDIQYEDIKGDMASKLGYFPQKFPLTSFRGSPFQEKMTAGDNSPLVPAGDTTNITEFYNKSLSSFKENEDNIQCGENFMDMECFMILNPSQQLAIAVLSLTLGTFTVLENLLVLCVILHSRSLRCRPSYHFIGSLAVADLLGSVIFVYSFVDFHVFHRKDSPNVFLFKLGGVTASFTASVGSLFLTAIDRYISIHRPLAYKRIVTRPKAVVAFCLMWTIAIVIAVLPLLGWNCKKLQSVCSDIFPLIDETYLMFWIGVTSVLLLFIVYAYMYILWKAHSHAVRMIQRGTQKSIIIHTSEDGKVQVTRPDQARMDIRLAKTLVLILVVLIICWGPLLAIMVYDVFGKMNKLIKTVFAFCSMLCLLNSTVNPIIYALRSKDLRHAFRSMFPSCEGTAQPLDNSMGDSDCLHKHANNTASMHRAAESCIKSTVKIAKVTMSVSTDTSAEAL
T1 sequence (P47936 whole entry, looked up): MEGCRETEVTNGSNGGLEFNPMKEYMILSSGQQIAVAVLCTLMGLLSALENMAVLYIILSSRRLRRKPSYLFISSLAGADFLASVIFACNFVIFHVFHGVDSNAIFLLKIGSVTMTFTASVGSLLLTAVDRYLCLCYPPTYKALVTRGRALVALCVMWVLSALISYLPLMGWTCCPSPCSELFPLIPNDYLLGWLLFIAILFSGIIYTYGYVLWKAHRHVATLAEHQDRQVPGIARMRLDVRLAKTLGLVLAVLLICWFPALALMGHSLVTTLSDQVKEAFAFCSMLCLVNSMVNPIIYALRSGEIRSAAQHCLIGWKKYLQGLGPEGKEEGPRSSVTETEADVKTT
T2 sequence (P22303 whole entry): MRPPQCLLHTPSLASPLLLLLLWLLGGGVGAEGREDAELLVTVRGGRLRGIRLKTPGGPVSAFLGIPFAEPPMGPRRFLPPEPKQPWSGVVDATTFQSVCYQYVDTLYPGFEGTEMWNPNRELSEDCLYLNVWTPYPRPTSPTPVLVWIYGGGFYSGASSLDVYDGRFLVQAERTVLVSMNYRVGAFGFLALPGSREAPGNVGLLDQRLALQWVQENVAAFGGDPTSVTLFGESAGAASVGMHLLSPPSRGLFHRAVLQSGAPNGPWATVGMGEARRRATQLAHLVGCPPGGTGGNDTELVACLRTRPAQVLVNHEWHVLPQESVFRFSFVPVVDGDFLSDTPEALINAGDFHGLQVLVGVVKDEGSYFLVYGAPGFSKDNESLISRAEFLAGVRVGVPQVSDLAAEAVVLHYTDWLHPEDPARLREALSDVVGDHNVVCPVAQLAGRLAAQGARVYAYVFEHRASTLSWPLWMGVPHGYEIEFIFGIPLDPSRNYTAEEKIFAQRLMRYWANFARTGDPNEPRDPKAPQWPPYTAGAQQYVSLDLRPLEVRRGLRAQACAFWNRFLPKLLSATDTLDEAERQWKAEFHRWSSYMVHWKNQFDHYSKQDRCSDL
T3 sequence (P06276 whole entry): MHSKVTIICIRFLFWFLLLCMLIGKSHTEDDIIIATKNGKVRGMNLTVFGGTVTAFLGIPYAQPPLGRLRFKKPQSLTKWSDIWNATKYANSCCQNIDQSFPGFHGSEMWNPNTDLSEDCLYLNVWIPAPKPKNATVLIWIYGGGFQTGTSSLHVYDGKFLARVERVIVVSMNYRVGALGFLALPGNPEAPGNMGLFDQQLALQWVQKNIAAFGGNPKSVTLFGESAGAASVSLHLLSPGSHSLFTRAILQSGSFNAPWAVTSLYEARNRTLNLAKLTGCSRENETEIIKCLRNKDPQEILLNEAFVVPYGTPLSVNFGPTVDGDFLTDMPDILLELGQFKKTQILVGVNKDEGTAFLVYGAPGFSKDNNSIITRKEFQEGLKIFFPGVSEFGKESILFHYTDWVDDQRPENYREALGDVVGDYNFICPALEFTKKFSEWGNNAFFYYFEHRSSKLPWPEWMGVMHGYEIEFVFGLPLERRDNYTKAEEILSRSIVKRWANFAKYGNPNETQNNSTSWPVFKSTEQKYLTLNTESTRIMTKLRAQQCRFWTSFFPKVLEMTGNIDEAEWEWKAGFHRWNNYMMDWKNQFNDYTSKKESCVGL
Beta-secretase 1 (Homo sapiens), sequence (P56817 whole entry): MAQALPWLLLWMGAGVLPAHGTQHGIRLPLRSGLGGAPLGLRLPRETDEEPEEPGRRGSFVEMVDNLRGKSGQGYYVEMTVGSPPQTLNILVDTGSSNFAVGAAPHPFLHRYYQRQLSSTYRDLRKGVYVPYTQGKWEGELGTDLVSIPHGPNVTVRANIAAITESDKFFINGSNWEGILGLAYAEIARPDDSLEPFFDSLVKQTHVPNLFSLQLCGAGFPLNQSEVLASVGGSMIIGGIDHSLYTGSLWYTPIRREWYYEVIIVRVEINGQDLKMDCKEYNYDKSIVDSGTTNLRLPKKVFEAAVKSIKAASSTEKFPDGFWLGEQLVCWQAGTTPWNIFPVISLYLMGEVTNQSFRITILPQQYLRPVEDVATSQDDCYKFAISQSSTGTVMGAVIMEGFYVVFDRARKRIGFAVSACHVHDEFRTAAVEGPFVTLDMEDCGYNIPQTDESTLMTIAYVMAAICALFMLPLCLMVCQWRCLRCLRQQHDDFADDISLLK

In the case of Cc1cc(C)c(C(=O)n2nc(OCCN3CCCCC3)c3ccccc32)c(C)c1, the inhibition [1] is reported as 14%, the Activity [2] is reported as “inactive” and the inhibition [3] is reported as 7.6%. For the same molecule, the inhibition [4] was 19.8%, the inhibition [5] was 12% and the Activity [6] was “inactive”. It also gave an IC50 [7] of 11.6 µM, an inhibition [8] of 2.6% and an inhibition [9] of 1.4%. The Activity [10] was “Non-Toxic”, the inhibition [11] was 1.3% and the Activity [12] was “Active”. For the same molecule, the inhibition [13] was 40.7%, the Activity [14] was “Active” and the inhibition [15] was 56.8%. It also gave an inhibition [16] of 6.5%, an IC50 [17] of 0.29 µM and an inhibition [18] of 30.7%. For the same molecule, the inhibition [19] was -4.7%, the Activity [20] was “inactive” and the inhibition [21] was 3.6%. It also gave an inhibition [22] of -0.4% and an inhibition [23] of 8.7%.
With COc1ccc(COc2nn(CCN(C(C)C)C(C)C)c3ccccc23)cc1 the inhibition [1] was 43.1%, the inhibition [5] was 9% and the inhibition [24] was 12%. For the same molecule, the IC50 [7] was > 10 µM, the inhibition [8] was 7.5% and the inhibition [25] was 8.2%. The inhibition [26] was 1.3%, the Activity [10] was “Non-Toxic” and the inhibition [27] was 20.3%. The inhibition [28] was 24%, the Activity [12] was “Active” and the inhibition [29] was 84%. For the same molecule, the Activity [14] was “Active”, the Activity [30] was “Active” and the inhibition [15] was 86.4%. The inhibition [16] was 18.6%, the inhibition [18] was 74.7% and the inhibition [31] was “Active”. For the same molecule, the Activity [20] was “inactive”, the inhibition [21] was 8.5% and the inhibition [32] was 60%.
